Patent publication US20200148646A1, “6-S[…] 7-S[…] ANALOGS AND THE USE THEREOF” (Purdue Pharma, L.P., priority 2013, published 2020)

How the values were obtained:
human κ opioid receptor = human κ opioid receptor (Homo sapiens, UniProt P41145); test: κ-opioid receptor [35S]GTPγS functional assay, U-2 OS cells; format: biochemical; parameters: expressed in transfected cells; host or cells: U-2 OS cells (in-house membranes); conditions: for Emax: U2-OS cells, relative to U69,593
Experimental: Membranes from recombinant HEK-293 cells, CHO or U-2 OS cells expressing the recombinant human K opioid receptor (K) were prepared by lysing cells in ice cold hypotonic buffer (2.5 mM MgCl2, 50 mM HEPES, pH 7.4) (10 mL/10 cm dish) followed by homogenization with a tissue grinder/Teflon pestle. Functional [^35S]GTPγS binding assays were conducted as follows. K opioid receptor membrane solution was prepared by sequentially adding final concentrations of 0.026 μg/μl κ membrane protein (in-house), 10 μg/mL saponin, 3 μM GDP and 0.20 nM [^35S]GTPγS to binding buffer (100 mM NaCl, 10 mM MgCl2, 20 mM HEPES, pH 7.4) on ice. The prepared membrane solution (190 μl/well) was transferred to 96-shallow well polypropylene plates containing 10 μl of 20× concentrated stock solutions of agonist prepared in DMSO. Plates were incubated for 30 min at a temperature of about 25° C. with shaking. Reactions were terminated by rapid filtration onto 96-well Unifilter GF/B filter plates (Perkin Elmer, Shelton, Conn.) using a 96-well tissue harvester (Packard) and followed by three filtration washes with 200 μl ice-cold binding buffer (10 mM NaH2PO4, 10 mM Na2HPO4, pH 7.4). Filter plates were subsequently dried at 50° C. for 2-3 hours. Fifty μl/well scintillation cocktail (Perkin Elmer, Shelton, Conn.) was added and plates were counted in a Packard Top-Count for 1 min/well.
κ GTP EC50 is the concentration of a compound providing 50% of the maximal response for the compound at a κ receptor.
κ GTP Emax (%) is the maximal effect elicited by a compound relative to the effect elicited by U69,593.
(§1) In TABLE 2A, activity response of certain Compounds of the Invention at the μ- and κ-opioid receptors using U-2 OS cells was determined as described above for functional assays.

μ-opioid receptor = μ-opioid receptor (Homo sapiens, UniProt P35372); test: μ-opioid receptor [35S]GTPγS functional assay, U-2 OS cells; format: biochemical; parameters: host or cells: U-2 OS cells; conditions: for Emax: U2-OS cells, relative to DAMGO
Sequence of μ-opioid receptor (P35372 whole entry, species assumed): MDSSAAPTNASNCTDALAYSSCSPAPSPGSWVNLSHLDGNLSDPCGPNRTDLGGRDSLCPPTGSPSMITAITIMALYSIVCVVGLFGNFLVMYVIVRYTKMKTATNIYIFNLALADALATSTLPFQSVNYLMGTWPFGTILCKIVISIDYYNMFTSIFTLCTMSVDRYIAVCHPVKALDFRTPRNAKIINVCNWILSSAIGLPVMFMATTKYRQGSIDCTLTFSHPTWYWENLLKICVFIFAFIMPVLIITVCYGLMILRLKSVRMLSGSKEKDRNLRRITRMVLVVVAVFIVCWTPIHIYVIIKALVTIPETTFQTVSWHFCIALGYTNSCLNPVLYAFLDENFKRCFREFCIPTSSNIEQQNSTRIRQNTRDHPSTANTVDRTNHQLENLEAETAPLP
Experimental: [^35S]GTPγS functional assays were conducted using freshly thawed μ-receptor membranes prepared in-house from a cell line expressing recombinant opioid receptor in a HEK-293, CHO or U-2 OS cell background, or purchased from a commercial source (Perkin Elmer, Shelton, Conn.; or DiscovRx, Fremont, Calif.). Assay reactions were prepared by sequentially adding the following reagents to binding buffer (100 mM NaCl, 10 mM MgCl2, 20 mM HEPES, pH 7.4) on ice (final concentrations indicated): membrane protein (0.026 mg/mL), saponin ([…]), GDP ([…]) and [^35S]GTPγS (0.20 nM; Perkin Elmer, Shelton, Conn.). The prepared membrane solution (190 l/well) was transferred to 96-shallow well polypropylene plates containing 10 μl of 20× concentrated stock solutions of the agonist [D-Ala^2, N-methyl-Phe^4 Gly-ol^5]-enkephalin (DAMGO) prepared in dimethyl sulfoxide (DMSO). Plates were incubated for 30 min at about 25° C. with shaking. Reactions were terminated by rapid filtration onto 96-well Unifilter GF/B filter plates (Perkin Elmer, Shelton, Conn.) using a 96-well tissue harvester (Perkin Elmer, Shelton, Conn.) followed by three filtration washes with 200 μl of ice-cold wash buffer (10 mM NaH2PO4, 10 mM Na2HPO4, pH 7.4). Filter plates were subsequently dried at 50° C. for 2-3 hr. BetaScint scintillation cocktail (Perkin Elmer, Shelton, Conn.) was added (50 μl/well) and plates were counted using a Packard Top-Count for 1 min/well. Data were analyzed using the sigmoidal dose-response curve fitting functions in GraphPad PRISM v. 3.0, or an in-house function for non-linear, sigmoidal dose-response curve-fitting.
μ GTP EC50 is the concentration of a compound providing 50% of the maximal response for the compound at a μ-opioid receptor.
μ GTP Emax (%) is the maximal effect elicited by a compound relative to the effect elicited by DAMGO, a standard agonist. Generally, the μ GTP Emax (%) value measures the efficacy of a compound to treat or prevent pain or other Conditions.
as §1

Sequence of human κ opioid receptor (P41145 whole entry): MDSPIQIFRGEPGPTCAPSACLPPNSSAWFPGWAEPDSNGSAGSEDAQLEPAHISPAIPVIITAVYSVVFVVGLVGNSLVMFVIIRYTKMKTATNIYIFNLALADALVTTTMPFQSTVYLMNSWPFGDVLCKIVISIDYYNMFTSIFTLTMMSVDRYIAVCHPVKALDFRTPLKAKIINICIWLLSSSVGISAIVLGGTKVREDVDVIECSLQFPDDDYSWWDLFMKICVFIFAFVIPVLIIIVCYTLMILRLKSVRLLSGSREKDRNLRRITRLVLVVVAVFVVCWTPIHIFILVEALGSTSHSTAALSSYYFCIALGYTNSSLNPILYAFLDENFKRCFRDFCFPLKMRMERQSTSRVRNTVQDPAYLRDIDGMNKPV

SMILES | EC50 (human κ opioid receptor) [nM] | Emax (human κ opioid receptor) [%] | EC50 (μ-opioid receptor) [nM] | Emax (μ-opioid receptor) [%]
CN[C@@H]1C[C@@]2(O)[C@H]3Cc4ccc(O)cc4[C@@]2(CCN3CC2CC2)C[C@@H]1O [Compound 35, (4bR,6S,7R,8aS,9R)-11-(cyclopropylmethyl)-7-(methylamino)-5,6,7,8,9,10-hexahydro-8aH-9,4b-(epiminoethano)phenanthrene-3,6,8a-triol] | 0.2 ± 0.042 | 97.3 ± 2.85 | 2.55 ± 0.33 | 25.7 ± 0.88
O=C(N[C@H]1C[C@@]2(O)[C@H]3Cc4ccc(O)cc4[C@@]2(CCN3CC2CC2)C[C@H]1O)c1ccccc1 [Compound 66, N-((4bR,6R,7S,8aS,9R)-11-(cyclopropylmethyl)-3,6,8a-trihydroxy-6,7,8,8a,9,10-hexahydro-5H-9,4b-(epiminoethano)phenanthren-7-yl)benzamide] | 39.2 ± 4.27 | 71.7 ± 1.2 | 114 ± 14.5 | 15 ± 0.58
CC(C)C(=O)N[C@H]1C[C@@]2(O)[C@H]3Cc4ccc(O)cc4[C@@]2(CCN3CC2CC2)C[C@H]1O [Compound 58, N-((4bR,6R,7S,8aS,9R)-11-(cyclopropylmethyl)-3,6,8a-trihydroxy-6,7,8,8a,9,10-hexahydro-5H-9,4b-(epiminoethano)phenanthren-7-yl)isobutyramide] | 38.1 ± 2.2 | 101 ± 1.2 | 80.9 ± 15.1 | 19.3 ± 1.45
CC[C@H](C)C(=O)N[C@H]1C[C@@]2(O)[C@H]3Cc4ccc(O)cc4[C@@]2(CCN3CC2CC2)C[C@H]1O [Compound 59, (S)—N-((4bR,6R,7S,8aS,9R)-11-(cyclopropylmethyl)-3,6,8a-trihydroxy-6,7,8,8a,9,10-hexahydro-5H-9,4b-(epiminoethano)phenanthren-7-yl)-2-methylbutanamide] | 35.6 ± 4.27 | 98.3 ± 3.18 | 45 ± 8.96 | 22.3 ± 1.45
O=C(N[C@H]1C[C@@]2(O)[C@H]3Cc4ccc(O)cc4[C@@]2(CCN3CC2CC2)CC1O)C1CCCCC1 (stereo partly drawn) [Compound 65, N-((4bR,7S,8aS,9R)-11-(cyclopropylmethyl)-3,6,8a-trihydroxy-6,7,8,8a,9,10-hexahydro-5H-9,4b-(epiminoethano)phenanthren-7-yl)cyclohexanecarboxamide] | 15.9 ± 2.09 | 106 ± 1.89 | 68.4 ± 13 | 26.7 ± 0.67
COc1ccc2c(c1)[C@@]13CCC(=O)C[C@@]1(O)[C@@H](C2)N(CC1CC1)CC3 [Compound 31, (4bS,8aS,9R)-11-(cyclopropylmethyl)-8a-hydroxy-3-methoxy-5,6,8,8a,9,10-hexahydro-7H-9,4b-(epiminoethano)phenanthren-7-one] | 633 ± 87.1 | 108 ± 3.76 | 740 ± 49.5 | 57.3 ± 2.73
COc1ccc2c(c1)[C@]13CCN(CC4CC4)[C@H](C2)[C@]1(O)C[C@H](OCC(C)C)[C@H](O)C3 [Compound 51, (4bR,6R,7S,8aS,9R)-11-(cyclopropylmethyl)-7-isobutoxy-3-methoxy-5,6,7,8,9,10-hexahydro-8aH-9,4b-(epiminoethano)phenanthrene-6,8a-diol] | 14500 ± 1680 | 86.7 ± 3.18 | > 20000 | 7
CC(C)CCC(=O)N[C@H]1C[C@@]2(O)[C@H]3Cc4ccc(O)cc4[C@@]2(CCN3CC2CC2)C[C@H]1O [Compound 61, N-((4bR,6R,7S,8aS,9R)-11-(cyclopropylmethyl)-3,6,8a-trihydroxy-6,7,8,8a,9,10-hexahydro-5H-9,4b-(epiminoethano)phenanthren-7-yl)-4-methylpentanamide] | 15.4 ± 2.43 | 97.7 ± 2.19 | 61.6 ± 5.41 | 26.7 ± 0.88
O=C(O)CN[C@@H]1C[C@@]2(O)[C@H]3Cc4ccc(O)cc4[C@@]2(CCN3CC2CC2)C[C@@H]1O [Compound 40, ((4bR,6S,7R,8aS,9R)-11-(cyclopropylmethyl)-3,6,8a-trihydroxy-6,7,8,8a,9,10-hexahydro-5H-9,4b-(epiminoethano)phenanthren-7-yl)glycine] | 7.24 ± 0.65 | 43 ± 3.06 | > 20000 | 2
Oc1ccc2c(c1)[C@]13CCN(CC4CC4)[C@H](C2)[C@]1(O)C[C@H](CC1CCCC1)[C@H](O)C3 [Compound 54, (4bR,6R,7S,8aS,9R)-7-(cyclopentylmethyl)-11-(cyclopropylmethyl)-5,6,7,8,9,10-hexahydro-8aH-9,4b-(epiminoethano)phenanthrene-3,6,8a-triol] | 32.1 ± 2.76 | 97.7 ± 3.93 | > 20000 | 3
CC(C)C[C@H]1C[C@@]2(O)[C@H]3Cc4ccc(O)cc4[C@@]2(CCN3CC2CC2)C[C@H]1O [Compound 67, (4bR,6R,7S,8aS,9R)-11-(cyclopropylmethyl)-7-isobutyl-5,6,7,8,9,10-hexahydro-8aH-9,4b-(epiminoethano)phenanthrene-3,6,8a-triol] | 55.5 ± 8.5 | 89.3 ± 1.67 | > 20000 | 2
CC(C)CC(=O)N[C@H]1C[C@@]2(O)[C@H]3Cc4ccc(O)cc4[C@@]2(CCN3CC2CC2)C[C@H]1O [Compound 60, N-((4bR,6R,7S,8aS,9R)-11-(cyclopropylmethyl)-3,6,8a-trihydroxy-6,7,8,8a,9,10-hexahydro-5H-9,4b-(epiminoethano)phenanthren-7-yl)-3-methylbutanamide] | 31.4 ± 3.7 | 106 ± 6.06 | 54.7 ± 8.1 | 25.3 ± 0.33
CC(=O)N[C@H]1CC[C@]23CCN(CC4CC4)[C@H](Cc4ccc(O)cc42)[C@]3(O)C1 [Compound 47, N-((4bS,7S,8aS,9R)-11-(cyclopropylmethyl)-3,8a-dihydroxy-6,7,8,8a,9,10-hexahydro-5H-9,4b-(epiminoethano)phenanthren-7-yl)acetamide] | 0.14 ± 0.027 | 105 ± 1.76 | 0.61 ± 0.17 | 44 ± 1.73
Oc1ccc2c(c1)[C@]13CCN(CC4CC4)[C@H](C2)[C@]1(O)C[C@@H](NCc1ccccc1)[C@@H](O)C3 [Compound 36, (4bR,6S,7R,8aS,9R)-7-(benzylamino)-11-(cyclopropylmethyl)-5,6,7,8,9,10-hexahydro-8aH-9,4b-(epiminoethano)phenanthrene-3,6,8a-triol] | 0.34 ± 0.033 | 62 ± 3.06 | 2.36 ± 0.64 | 24.3 ± 0.88
Oc1ccc2c(c1)[C@]13CCN(CC4CC4)[C@H](C2)[C@]1(O)C[C@@H](N1CCOCC1)[C@@H](O)C3 [Compound 39, (4bR,6S,7R,8aS,9R)-11-(cyclopropylmethyl)-7-morpholino-5,6,7,8,9,10-hexahydro-8aH-9,4b-(epiminoethano)phenanthrene-3,6,8a-triol] | > 20000 | 1 | > 20000 | 2
CCC(C)C[C@H]1C[C@@]2(O)[C@H]3Cc4ccc(O)cc4[C@@]2(CCN3CC2CC2)C[C@H]1O (stereo partly drawn) [Compound 53, (4bR,6R,7S,8aS,9R)-11-(cyclopropylmethyl)-7-(2-methylbutyl)-5,6,7,8,9,10-hexahydro-8aH-9,4b-(epiminoethano)phenanthrene-3,6,8a-triol] | 73.8 ± 11.8 | 62 ± 1.53 | > 20000 | 3
Oc1ccc2c(c1)[C@]13CCN(CC4CC4)[C@H](C2)[C@]1(O)C[C@@H](NCc1ccccc1)[C@H](O)C3 [Compound 37, (4bR,6R,7R,8aS,9R)-7-(benzylamino)-11-(cyclopropylmethyl)-5,6,7,8,9,10-hexahydro-8aH-9,4b-(epiminoethano)phenanthrene-3,6,8a-triol] | 0.5 ± 0.039 | 87.7 ± 2.19 | 3.35 ± 0.41 | 24.3 ± 0.88
